Here are results for 15 compounds from US9199945B2, “Cycloalkyl-substituted pyrimidinedione compounds” (MyoKardia, Inc., priority 2013, dated 2015).

Molecules are shown by their SMILES. pIC50: −log10 of the molar value.

Broadly, the inhibition is the percentage by which the read-out fell short of the control. Low readings indicate a response near the control, high ones a response far below the control.

The first test concerns adult rat ventricular myocytes. Description: Cardiomyocyte contractility assay (fractional shortening, IonOptix edge detection). It counts as cell-based. The conditions noted are these: Ventricular myocyte, 0.3 uM compound, 1 Hz pacing. As to the method: Contractility of adult rat ventricular myocytes is determined by edge detection with an IonOptix contractility system. Aliquots of myocytes in Tyrode buffer (137 mM NaCl, 3.7 mM KCl, 0.5 mM MgCl2, 1.5 mM CaCl2, 4 mM HEPES, 11 mM glucose) are placed in a perfusion chamber (Series 20 RC-27NE; Warner Instruments), allowed to adhere to the coverslip, and then perfused with 37° C. Tyrode buffer. Myocytes are filed stimulated at 1 Hz and 10V. Only myocytes with clear striations, quiescent prior to pacing, with a cell length of 120-180 microns, a basal fractional shortening equal to 3-8% of the cell length, and a contraction velocity greater than 100 microns per second are used for contractility experiments. To determine the response to compounds, myocytes are first perfused for 60 seconds with Tyrodes buffer followed by 5 minutes of compound and a 140 second washout with Tyrodes buffer. Data is continuously recorded using IonOptix software. Contractility data is analyzed using lonwizard software (IonOptix). For each cell, 10-20 contractility transients were averaged and compared under basal (no compound) and compound-treated conditions. Compound activity is measured by effects on fractional shortening (FS), where fractional shortening is the ratio of the peak length of the cell at contraction divided by the basal cell length normalized to 100% for an untreated cell.
For the compound `CC(C)n1c(=O)cc(N[C@@H](C)CC2CCC(F)(F)CC2)[nH]c1=O` [Compound 3, (S)-6-((1-(4,4-Difluorocyclohexyl)propan-2-yl)amino)-3-isopropylpyrimidine-2,4(1H,3H)-dione], the inhibition at 0.3 µM is more than 66%.

The test is the same for the next values; noted with them: Ventricular myocyte, 1.0 uM compound, 1 Hz pacing.
`CC(C)n1c(=O)[nH]c(N[C@@H](C)C2CCC(F)(F)CC2)c(F)c1=O` [Compound 5, (S)-6-((1-(4,4-difluorocyclohexyl)ethyl)amino)-5-fluoro-3-isopropylpyrimidine-2,4(1H,3H)-dione]: the inhibition at 1 µM is 33 to 66%. `CC(C)n1c(=O)cc(N[C@@H](C)C2CCC(F)(F)CC2)[nH]c1=O` [Compound 9, (S)-6-((1-(4,4-difluorocyclohexyl)ethyl)amino)-3-isopropylpyrimidine-2,4(1H,3H)-dione] returned an inhibition at 1 µM of more than 66%.

The target of the next test is T1, bovine cardiac myosin (Bos taurus, UniProt Q9BE39).
T1 construct: The source of cardiac myosin was from bovine heart in the form of skinned myofibrils; from tissue; host or cells: bovine heart (skinned myofibrils)
T1 sequence (Q9BE39 whole entry): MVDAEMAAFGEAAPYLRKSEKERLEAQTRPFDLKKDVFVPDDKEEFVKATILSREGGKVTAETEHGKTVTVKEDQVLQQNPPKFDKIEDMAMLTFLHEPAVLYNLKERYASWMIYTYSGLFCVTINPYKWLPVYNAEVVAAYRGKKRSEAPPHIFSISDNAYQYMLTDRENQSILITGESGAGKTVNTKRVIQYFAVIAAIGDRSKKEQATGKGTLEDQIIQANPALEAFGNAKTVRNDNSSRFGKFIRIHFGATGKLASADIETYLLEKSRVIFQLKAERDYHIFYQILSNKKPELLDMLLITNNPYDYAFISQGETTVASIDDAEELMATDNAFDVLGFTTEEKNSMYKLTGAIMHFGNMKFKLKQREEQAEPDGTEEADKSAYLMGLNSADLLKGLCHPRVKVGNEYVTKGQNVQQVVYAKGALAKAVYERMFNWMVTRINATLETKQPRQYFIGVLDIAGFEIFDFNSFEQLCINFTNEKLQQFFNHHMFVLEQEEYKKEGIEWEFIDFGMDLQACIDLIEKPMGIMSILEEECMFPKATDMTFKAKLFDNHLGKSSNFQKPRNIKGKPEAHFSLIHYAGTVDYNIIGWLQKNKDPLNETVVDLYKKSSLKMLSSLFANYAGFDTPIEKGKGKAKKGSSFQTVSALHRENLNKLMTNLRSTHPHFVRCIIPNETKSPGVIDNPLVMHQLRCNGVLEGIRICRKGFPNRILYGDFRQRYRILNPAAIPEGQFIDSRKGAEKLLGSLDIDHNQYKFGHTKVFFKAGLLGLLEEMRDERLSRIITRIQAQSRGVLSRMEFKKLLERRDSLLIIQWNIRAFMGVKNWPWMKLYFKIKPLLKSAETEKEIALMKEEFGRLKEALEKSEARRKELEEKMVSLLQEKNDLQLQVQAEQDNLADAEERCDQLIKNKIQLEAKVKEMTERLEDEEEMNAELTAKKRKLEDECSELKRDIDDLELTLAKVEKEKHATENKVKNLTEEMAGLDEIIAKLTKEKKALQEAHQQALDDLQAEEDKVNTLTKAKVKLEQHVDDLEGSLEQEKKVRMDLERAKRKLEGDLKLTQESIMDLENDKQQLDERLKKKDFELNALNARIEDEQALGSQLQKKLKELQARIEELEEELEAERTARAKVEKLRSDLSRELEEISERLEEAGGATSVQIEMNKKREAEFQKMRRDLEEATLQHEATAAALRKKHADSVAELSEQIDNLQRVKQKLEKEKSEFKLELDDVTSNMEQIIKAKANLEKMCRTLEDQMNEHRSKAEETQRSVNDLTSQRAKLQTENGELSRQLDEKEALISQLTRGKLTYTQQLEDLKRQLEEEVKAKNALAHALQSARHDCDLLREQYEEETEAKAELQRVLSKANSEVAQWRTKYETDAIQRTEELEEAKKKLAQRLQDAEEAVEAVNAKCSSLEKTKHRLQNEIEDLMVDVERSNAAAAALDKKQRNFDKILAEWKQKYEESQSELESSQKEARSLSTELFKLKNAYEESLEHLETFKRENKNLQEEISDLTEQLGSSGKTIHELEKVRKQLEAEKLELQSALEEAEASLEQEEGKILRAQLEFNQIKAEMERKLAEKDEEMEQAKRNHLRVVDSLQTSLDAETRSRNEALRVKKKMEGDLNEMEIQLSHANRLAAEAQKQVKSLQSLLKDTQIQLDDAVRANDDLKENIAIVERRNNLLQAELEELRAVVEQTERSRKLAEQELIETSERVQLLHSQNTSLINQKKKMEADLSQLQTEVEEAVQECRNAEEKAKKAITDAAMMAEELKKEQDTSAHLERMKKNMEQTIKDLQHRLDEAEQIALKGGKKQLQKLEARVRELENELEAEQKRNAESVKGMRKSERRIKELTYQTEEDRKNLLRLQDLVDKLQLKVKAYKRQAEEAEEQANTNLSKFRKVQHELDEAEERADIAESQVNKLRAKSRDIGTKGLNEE
T1 sequence (P85100 whole entry partner): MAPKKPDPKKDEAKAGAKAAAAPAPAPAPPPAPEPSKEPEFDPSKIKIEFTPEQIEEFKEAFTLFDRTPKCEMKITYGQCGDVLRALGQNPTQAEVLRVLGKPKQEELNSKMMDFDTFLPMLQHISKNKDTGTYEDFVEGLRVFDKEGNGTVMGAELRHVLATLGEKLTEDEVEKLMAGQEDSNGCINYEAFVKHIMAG
T1 sequence (Q3SZE5 whole entry partner): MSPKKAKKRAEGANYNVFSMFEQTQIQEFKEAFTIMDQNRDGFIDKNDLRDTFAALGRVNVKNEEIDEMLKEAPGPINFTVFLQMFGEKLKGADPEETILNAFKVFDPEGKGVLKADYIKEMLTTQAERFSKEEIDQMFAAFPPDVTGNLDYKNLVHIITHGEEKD
Description: Myosin inhibition assay (PK/LDH-coupled ATPase, bovine cardiac myofibrils). It counts as biochemical. Particulars: calcium concentration giving 50% activation (pCa50), read-out: Biochemical Activity (pCa50). The protocol: Small molecule agents were assessed for their ability to inhibit the enzymatic activity of bovine cardiac myosin using a biochemical assay that couples the release of ADP (adenosine diphosphate) from cardiac myosin to an enzymatic coupling system consisting of pyruvate kinase and lactate dehydrogenase (PK/LDH) and monitoring the absorbance decrease of NADH (at 340 nm) as a function of time. PK converts ADP to ATP (adenosine triphosphate) by converting PEP (phosphoenolpyruvate) to pyruvate. Pyruvate is then converted to lactate by LDH by converting NADH (nicotinamide adenine dinucleotide) to NAD (oxidized nicotinamide adenine dinucleotide). The source of cardiac myosin was from bovine heart in the form of skinned myofibrils. Prior to testing small molecule agents, the bovine myofibrils were assessed for their calcium responsiveness and the calcium concentration that achieves either a 50% (pCa50) or 75% (pCa75) activation of the myofibril system was chosen as the final condition for assessing the inhibitory activity of the small molecule agents. All enzymatic activity was measured in a buffered solution containing 12 mM PIPES (piperazine-N,N′-bis(2-ethanesulfonic acid), 2 mM magnesium chloride at pH 6.8 (PM12 buffer). Final assay conditions were 1 mg/mL of bovine cardiac myofibrils, 0.4 mM PK/LDH, 50 uM ATP, 0.1 mg/mL BSA (bovine serum albumin), 10 ppm antifoam, 1 mM DTT, 0.5 mM NADH, 1.5 mM PEP at the desired free calcium concentration required to achieve either 50% or 75% activation of the myofibrils.
A dilution series of compound was created in DMSO such that the final desired concentration of compound would be achieved in a volume of 100 μL with a fixed DMSO concentration of 2% (v/v). Typically 2 μL of the dilution series were added to 96 well plate to achieve an 8 or 12 point dose response. Following the addition of 50 μL of a solution containing bovine cardiac myofibrils, PK/LDH and a solution of calcium (that achieved the desired activation), the enzymatic reaction was started with the addition of 50 μL of a solution containing ATP, PEP and NADH. The reaction progress was followed in a Molecular Devices M5e plate reader at ambient temperature using clear half area plates. The plate reader was configured to read absorbance at 340 nm in kinetics mode for 15 minutes. Data were recorded as the slope of the absorbance response to time. The slopes of the absorbance response as a function of time were normalized to slopes on the plate containing DMSO. This normalized rate was then plotted as a function of small molecule concentration and the data was fitted to a four-parameter fit using GraphPad Prism. The midpoint of this plot is the IC50 and is the concentration at which fifty percent of the total response is inhibited.
In the case of `C[C@@H](CC1CCC(F)(F)CC1)Nc1cc(=O)n(-c2cc(F)cc(F)c2)c(=O)[nH]1` [Compound 11, (S)-6-((1-(4,4-difluorocyclohexyl)propan-2-yl)amino)-3-(3,5-difluorophenyl)pyrimidine-2,4(1H,3H)-dione], the pIC50 is more than 6.00. Same read-out and setting: the figure for `C[C@@H](CC1CC(F)(F)C1)Nc1cc(=O)n(-c2cc(F)cc(F)c2)c(=O)[nH]1` [Compound 12, (S)-6-((1-(3,3-difluorocyclobutyl)propan-2-yl)amino)-3-(3,5-difluorophenyl)pyrimidine-2,4(1H,3H)-dione] is 4.82 to 6.00.

The test is the same for the next values; noted with them: calcium concentration giving 75% activation (pCa75), read-out: Biochemical Activity (pCa75).
Take `CC(C)n1c(=O)cc(NCC2CCCCC2)[nH]c1=O` [Compound 1, 6-((cyclohexylmethyl)amino)-3-isopropylpyrimidine-2,4(1H,3H)-dione]: the pIC50 is 4.82 to 6.00. On the same count and under the same terms, the value for `CC(C)n1c(=O)cc(NCC2CCCC2)[nH]c1=O` [Compound 2, 6-((Cyclopentylmethyl)amino)-3-isopropylpyrimidine-2,4(1H,3H)-dione] was less than 4.82. In the case of `CC(C)n1c(=O)cc(N[C@@H](C)CC2CCC(F)(F)CC2)[nH]c1=O` [Compound 3, (S)-6-((1-(4,4-Difluorocyclohexyl)propan-2-yl)amino)-3-isopropylpyrimidine-2,4(1H,3H)-dione], the pIC50 is more than 6.00. Take `C[C@H](Nc1cc(=O)n(C2CCOCC2)c(=O)[nH]1)C1CCC(F)(F)CC1` [Compound 4, (S)-6-((1-(4,4-difluorocyclohexyl)ethyl)amino)-3-(tetrahydro-2H-pyran-4-yl)pyrimidine-2,4(1H,3H)-dione]: the pIC50 was 4.82 to 6.00. `CC(C)n1c(=O)[nH]c(N[C@@H](C)C2CCC(F)(F)CC2)c(F)c1=O` [Compound 5, (S)-6-((1-(4,4-difluorocyclohexyl)ethyl)amino)-5-fluoro-3-isopropylpyrimidine-2,4(1H,3H)-dione]: the pIC50 was more than 6.00. Regarding `CC(C)n1c(=O)cc(N[C@@H](C)C2CCCCC2)[nH]c1=O` [Compound 6, (S)-6-((1-cyclohexylethyl)amino)-3-isopropylpyrimidine-2,4(1H,3H)-dione], the pIC50 is more than 6.00. On the same count and under the same terms, the figure for `CC(C)n1c(=O)cc(NCC2CCC2)[nH]c1=O` [Compound 7, 6-((cyclobutylmethyl)amino)-3-isopropylpyrimidine-2,4(1H,3H)-dione] is less than 4.82; for `CC(C)n1c(=O)cc(NCC2CCCCCC2)[nH]c1=O` [Compound 8, 6-((cycloheptylmethyl)amino)-3-isopropylpyrimidine-2,4(1H,3H)-dione] it is more than 6.00; for `CC(C)n1c(=O)cc(N[C@@H](C)C2CCC(F)(F)CC2)[nH]c1=O` [Compound 9, (S)-6-((1-(4,4-difluorocyclohexyl)ethyl)amino)-3-isopropylpyrimidine-2,4(1H,3H)-dione] it is more than 6.00.

As to `CC(C)n1c(=O)cc(N[C@@H](C)CC2CC(F)(F)C2)[nH]c1=O` [Compound 10, (S)-6-((1-(3,3-difluorocyclobutyl)propan-2-yl)amino)-3-isopropylpyrimidine-2,4(1H,3H)-dione], the pIC50 was 4.82 to 6.00.

In the case of `CC(C)n1c(=O)cc(NCCC2CCOCC2)[nH]c1=O` [Compound 13, 3-isopropyl-6-((2-(tetrahydro-2H-pyran-4-yl)ethyl)amino) pyrimidine-2,4(1H,3H)-dione], the pIC50 was less than 4.82. Consider `CC(C)n1c(=O)cc(N[C@@H](C)CC2CCOCC2)[nH]c1=O` [Compound 14, (S)-3-isopropyl-6-((1-(tetrahydro-2H-pyran-4-yl)propan-2-yl)amino)pyrimidine-2,4(1H,3H)-dione], for which the pIC50 was 4.82 to 6.00. The same measure, in the same setting: the figure for `C[C@H](Nc1cc(=O)n(C2CCN(S(C)(=O)=O)CC2)c(=O)[nH]1)C1CCCCC1` [Compound 15, (S)-6-((1-cyclohexylethyl)amino)-3-(1-(methylsulfonyl)piperidin-4-yl)pyrimidine-2,4(1H,3H)-dione] is more than 6.00.
